Values after ≈ are worked out from the molar mass of the structure shown.
Experiments:
[1] = target: Cyclin-dependent kinase 2 (Homo sapiens, UniProt P24941); experiment: Inhibition of CDK2 (unknown origin)
PC-9 [2] = experiment: Antiproliferative activity against human PC-9 cells assessed as reduction in cell growth incubated for 72 hrs by MTT assay; format: functional, cell-based; settings: PC-9, 72 h
NCI-H1975 [3] = experiment: Antiproliferative activity against human NCI-H1975 cells assessed as reduction in cell viability after 24 hrs by MTT assay; format: functional, cell-based; settings: NCI-H1975, 24 h
[4] = target: Epidermal growth factor receptor (Homo sapiens, UniProt P00533, L858R/T790M); experiment: Inhibition of EGFR L858R/T790M (unknown origin)
[5] = Half life in mouse at 10 mg/kg, po by LC-MS/MS analysis; format: ADME, organism-based; settings: in vivo
KB = experiment: cells; settings: Homo sapiens, 72 h
[6] = Oral bioavailability in Sprague-Dawley rat at 10 mg/kg by LC-MS analysis; format: ADME, organism-based; settings: in vivo
[7] = Clearance in Sprague-Dawley rat at 10 mg/kg, iv by LC-MS/MS analysis; format: ADME, organism-based; settings: in vivo
[8] = Volume of distribution at steady state in Sprague-Dawley rat at 10 mg/kg, iv by LC-MS/MS analysis; format: ADME, organism-based; settings: in vivo, read-out: Vdss
[9] = target: Proto-oncogene tyrosine-protein kinase Src (Homo sapiens, UniProt P12931)
HT-29 = experiment: Antiproliferative activity against human HT-29 cells assessed as reduction in cell viability after 72 hrs by MTS assay; format: functional, cell-based; settings: HT-29, 72 h
ACHN = experiment: Antiproliferative activity against human ACHN cells assessed as reduction in cell viability measured after 48 hrs by SRB assay; format: functional, cell-based
[10] = Inhibition of Bcr-Abl T315Ialpha mutant (unknown origin); design: species or system Homo sapiens
[11] = target: Vascular endothelial growth factor receptor 1 (Homo sapiens, UniProt P17948); experiment: Inhibition of VEGFR-1 (unknown origin)
[12] = target: Fibroblast growth factor receptor 1 (Homo sapiens, UniProt P11362); experiment: Inhibition of FGFR1 (unknown origin)
Calu-3 = experiment: Growth inhibition of human Calu-3 cells; format: functional
PC-9 [13] = experiment: Antiproliferative activity against human PC-9 cells harboring EGFR L858R mutant assessed as reduction in cell viability measured after 72 hrs by SRB assay; format: functional, cell-based; settings: PC-9, 72 h
PC-9 [14] = experiment: Growth inhibition of human PC-9 cells; format: functional
[15] = Aqueous solubility of compound at pH 7.4 by LC-MS/MS analysis; format: physicochemical; settings: buffer
[16] = target: Voltage-gated inwardly rectifying potassium channel KCNH2 (Homo sapiens, UniProt Q12809); experiment: Inhibition of hERG; format: toxicity
NCI-H1975 [17] = experiment: Growth inhibition of human NCI-H1975 cells; format: functional
[18] = Anticancer activity against human NCI-H1975 cells harboring EGFR L858R/T790M mutant assessed as reduction in cell viability measured after 72 hrs by MTT assay; format: functional, cell-based; settings: NCI-H1975, 72 h
NCI-H1975 [19] = experiment: Antitumor activity against human NCI-H1975 cells xenografted in female nude mouse assessed as tumor growth inhibition at 20 mg/kg, po adminstered once daily for 25 days relative to control; format: functional; settings: NCI-H1975, 600 h, time 25 day, read-out: TGI
[20] = target: Vascular endothelial growth factor receptor 2 (Homo sapiens, UniProt P35968); experiment: Binding affinity to VEGFR-2 (unknown origin) assessed as inhibition constant
[21] = Cytotoxicity against HUVEC cells assessed as reduction in cell viability after 72 hrs by CellTiter-Glo assay; format: toxicity, cell-based; settings: human
[22] = AUC (0 to infinity) in mouse at 50 mg/kg, po; format: ADME, organism-based; settings: in vivo
A549 = experiment: cells; settings: Homo sapiens, A549, 72 h

Voltage-gated inwardly rectifying potassium channel KCNH2, sequence (Q12809 whole entry): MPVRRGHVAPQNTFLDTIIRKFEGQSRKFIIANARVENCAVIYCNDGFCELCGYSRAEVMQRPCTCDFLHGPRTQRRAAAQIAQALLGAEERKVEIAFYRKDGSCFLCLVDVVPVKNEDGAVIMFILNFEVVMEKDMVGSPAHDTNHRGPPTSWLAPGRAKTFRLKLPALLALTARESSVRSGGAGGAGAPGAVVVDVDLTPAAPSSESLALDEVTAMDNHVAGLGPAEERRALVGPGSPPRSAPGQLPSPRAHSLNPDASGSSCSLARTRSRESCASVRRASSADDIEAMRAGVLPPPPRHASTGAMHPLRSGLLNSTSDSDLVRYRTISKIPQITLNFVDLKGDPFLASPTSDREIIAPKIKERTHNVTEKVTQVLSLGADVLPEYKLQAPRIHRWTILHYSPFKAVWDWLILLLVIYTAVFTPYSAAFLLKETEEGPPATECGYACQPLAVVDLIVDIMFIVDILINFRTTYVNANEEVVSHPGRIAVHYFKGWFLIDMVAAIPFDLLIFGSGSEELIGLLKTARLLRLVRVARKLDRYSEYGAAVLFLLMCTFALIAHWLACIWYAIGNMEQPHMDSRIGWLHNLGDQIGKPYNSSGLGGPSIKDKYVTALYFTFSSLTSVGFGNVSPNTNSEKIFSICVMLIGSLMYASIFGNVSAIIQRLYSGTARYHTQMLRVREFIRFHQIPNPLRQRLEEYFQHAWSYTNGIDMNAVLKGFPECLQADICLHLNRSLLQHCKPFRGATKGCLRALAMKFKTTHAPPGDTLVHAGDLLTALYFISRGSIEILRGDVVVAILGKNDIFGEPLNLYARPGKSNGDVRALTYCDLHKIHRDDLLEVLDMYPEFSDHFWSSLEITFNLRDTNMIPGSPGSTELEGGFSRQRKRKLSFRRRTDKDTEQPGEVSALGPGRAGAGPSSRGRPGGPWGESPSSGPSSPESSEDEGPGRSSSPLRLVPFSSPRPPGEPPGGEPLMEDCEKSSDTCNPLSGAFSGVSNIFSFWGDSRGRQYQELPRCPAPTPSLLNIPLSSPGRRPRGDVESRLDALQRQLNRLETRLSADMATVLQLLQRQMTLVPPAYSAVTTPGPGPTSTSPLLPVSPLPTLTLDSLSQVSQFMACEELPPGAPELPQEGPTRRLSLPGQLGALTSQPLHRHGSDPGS
Epidermal growth factor receptor, sequence (P00533 25-1210 T790M/L858R limits assumed): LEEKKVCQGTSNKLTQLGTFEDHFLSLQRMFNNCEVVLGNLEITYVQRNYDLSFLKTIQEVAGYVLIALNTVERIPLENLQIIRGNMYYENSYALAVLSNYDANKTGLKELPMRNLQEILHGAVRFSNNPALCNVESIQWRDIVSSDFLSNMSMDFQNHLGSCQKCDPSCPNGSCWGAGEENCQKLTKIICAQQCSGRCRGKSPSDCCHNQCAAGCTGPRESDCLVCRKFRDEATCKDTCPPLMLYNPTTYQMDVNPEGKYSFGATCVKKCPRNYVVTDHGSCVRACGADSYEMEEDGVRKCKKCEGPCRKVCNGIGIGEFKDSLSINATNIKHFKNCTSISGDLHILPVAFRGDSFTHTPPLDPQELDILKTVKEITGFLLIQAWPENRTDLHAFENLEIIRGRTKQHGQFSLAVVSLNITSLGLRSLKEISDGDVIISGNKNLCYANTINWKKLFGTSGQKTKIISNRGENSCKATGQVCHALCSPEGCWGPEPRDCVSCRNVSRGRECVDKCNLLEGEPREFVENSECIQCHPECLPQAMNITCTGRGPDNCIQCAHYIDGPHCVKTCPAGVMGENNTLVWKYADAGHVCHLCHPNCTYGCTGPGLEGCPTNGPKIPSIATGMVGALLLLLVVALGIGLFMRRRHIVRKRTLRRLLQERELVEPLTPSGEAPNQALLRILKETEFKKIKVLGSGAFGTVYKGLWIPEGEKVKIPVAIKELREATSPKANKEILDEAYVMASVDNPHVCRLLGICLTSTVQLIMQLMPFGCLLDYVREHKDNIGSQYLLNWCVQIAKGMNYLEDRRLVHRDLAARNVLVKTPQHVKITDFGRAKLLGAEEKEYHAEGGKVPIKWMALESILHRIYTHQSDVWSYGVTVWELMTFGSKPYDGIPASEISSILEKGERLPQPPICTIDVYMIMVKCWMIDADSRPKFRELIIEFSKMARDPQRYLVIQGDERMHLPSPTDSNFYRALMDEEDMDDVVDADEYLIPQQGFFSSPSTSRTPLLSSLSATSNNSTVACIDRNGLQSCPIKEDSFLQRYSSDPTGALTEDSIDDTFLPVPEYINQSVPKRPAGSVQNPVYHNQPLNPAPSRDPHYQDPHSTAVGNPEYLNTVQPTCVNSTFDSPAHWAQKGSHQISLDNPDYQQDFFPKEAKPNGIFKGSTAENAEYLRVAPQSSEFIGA
Vascular endothelial growth factor receptor 2, sequence (P35968 whole entry): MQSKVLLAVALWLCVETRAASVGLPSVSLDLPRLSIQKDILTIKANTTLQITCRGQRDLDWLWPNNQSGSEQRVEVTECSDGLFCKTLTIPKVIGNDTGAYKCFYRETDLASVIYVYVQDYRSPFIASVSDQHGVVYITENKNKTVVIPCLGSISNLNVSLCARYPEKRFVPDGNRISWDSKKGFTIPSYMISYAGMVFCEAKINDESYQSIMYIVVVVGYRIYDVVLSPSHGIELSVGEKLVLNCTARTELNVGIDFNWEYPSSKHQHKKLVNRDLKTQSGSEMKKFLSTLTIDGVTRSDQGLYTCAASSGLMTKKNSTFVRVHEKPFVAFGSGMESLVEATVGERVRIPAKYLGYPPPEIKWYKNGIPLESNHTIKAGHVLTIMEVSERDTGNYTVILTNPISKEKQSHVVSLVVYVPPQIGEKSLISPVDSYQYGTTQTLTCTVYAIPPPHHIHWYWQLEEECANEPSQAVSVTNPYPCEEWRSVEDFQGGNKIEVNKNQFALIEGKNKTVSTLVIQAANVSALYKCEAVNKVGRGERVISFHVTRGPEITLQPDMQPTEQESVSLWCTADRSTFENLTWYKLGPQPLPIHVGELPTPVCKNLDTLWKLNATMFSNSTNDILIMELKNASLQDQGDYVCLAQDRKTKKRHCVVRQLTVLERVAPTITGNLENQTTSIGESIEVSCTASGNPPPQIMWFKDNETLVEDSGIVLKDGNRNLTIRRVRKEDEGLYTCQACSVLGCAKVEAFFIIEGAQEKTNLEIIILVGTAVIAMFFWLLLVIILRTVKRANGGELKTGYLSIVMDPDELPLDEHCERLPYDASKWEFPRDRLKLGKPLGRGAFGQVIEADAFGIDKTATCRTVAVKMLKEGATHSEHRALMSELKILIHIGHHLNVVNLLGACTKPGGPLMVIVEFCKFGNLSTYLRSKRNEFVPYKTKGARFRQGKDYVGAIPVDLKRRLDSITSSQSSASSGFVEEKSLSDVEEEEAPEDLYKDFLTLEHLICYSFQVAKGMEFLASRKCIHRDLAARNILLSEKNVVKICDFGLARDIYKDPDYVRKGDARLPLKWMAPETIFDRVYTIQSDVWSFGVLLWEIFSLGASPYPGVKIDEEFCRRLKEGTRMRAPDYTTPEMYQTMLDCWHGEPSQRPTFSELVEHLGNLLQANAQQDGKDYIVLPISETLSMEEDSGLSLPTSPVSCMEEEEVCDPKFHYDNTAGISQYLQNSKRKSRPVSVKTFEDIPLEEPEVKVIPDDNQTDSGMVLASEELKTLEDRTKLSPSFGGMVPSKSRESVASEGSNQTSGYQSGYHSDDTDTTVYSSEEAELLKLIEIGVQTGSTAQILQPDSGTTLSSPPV
Vascular endothelial growth factor receptor 1, sequence (P17948 whole entry): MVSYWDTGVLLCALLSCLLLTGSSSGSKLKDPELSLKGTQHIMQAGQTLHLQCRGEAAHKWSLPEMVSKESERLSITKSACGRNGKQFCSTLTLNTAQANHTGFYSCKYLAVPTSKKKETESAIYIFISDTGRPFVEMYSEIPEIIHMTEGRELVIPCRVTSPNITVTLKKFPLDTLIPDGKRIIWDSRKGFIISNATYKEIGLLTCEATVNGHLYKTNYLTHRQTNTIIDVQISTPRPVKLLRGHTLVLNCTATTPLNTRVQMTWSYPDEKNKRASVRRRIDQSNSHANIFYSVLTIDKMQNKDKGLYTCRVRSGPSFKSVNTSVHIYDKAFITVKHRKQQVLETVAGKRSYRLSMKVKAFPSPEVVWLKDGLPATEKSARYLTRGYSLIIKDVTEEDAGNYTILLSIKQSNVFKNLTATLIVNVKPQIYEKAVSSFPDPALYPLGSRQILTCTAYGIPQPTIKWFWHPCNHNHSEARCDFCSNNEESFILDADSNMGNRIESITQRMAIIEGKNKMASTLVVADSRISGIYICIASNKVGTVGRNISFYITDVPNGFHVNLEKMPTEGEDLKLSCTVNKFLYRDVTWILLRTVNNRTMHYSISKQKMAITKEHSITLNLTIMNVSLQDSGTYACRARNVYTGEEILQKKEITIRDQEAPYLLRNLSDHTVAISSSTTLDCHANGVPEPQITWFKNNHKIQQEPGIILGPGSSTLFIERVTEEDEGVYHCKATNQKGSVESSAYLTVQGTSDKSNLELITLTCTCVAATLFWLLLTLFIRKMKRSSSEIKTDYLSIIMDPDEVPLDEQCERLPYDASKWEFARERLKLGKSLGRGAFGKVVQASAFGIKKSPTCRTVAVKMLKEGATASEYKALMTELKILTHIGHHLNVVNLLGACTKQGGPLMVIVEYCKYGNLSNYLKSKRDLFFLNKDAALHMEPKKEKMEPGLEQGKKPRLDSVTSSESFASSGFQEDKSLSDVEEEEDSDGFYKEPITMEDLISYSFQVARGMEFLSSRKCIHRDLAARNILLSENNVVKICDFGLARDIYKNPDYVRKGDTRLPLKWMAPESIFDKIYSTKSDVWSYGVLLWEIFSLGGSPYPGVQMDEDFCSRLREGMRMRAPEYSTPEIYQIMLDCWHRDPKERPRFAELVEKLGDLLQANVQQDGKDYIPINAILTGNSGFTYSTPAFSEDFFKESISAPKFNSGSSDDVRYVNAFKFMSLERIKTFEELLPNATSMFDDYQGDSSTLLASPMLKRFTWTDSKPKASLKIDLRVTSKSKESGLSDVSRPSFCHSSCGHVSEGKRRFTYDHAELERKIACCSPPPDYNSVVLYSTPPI

SMILES: CC(=O)c1c(C)c2cnc(Nc3ccc(N4CCNCC4)cc3)nc2n(C2CCCC2)c1=O
- IC50 [1]: 11 nM

SMILES: CCOC(=O)c1c(C)c2cnc(Nc3ccc(N4CCNCC4)cc3)nc2n(C2CCCC2)c1=O
- IC50 [1]: > 5000 nM

SMILES: C=CC(=O)Nc1ccc(OC)c(Nc2ncc(Cl)c(-c3c[nH]c4ccccc34)n2)c1
- IC50 (PC-9 [2]): 150 nM
- IC50 (NCI-H1975 [3]): 20 nM
- IC50 [4]: 60 nM

SMILES: COc1cc2ncnc(Nc3cccc(C)c3)c2cc1OC
- half-life [5]: 1 h
- IC50 (KB): 50 nM

SMILES: Cc1nc(Nc2ncc(C(=O)Nc3c(C)cccc3Cl)s2)cc(N2CCN(CCO)CC2)n1 [DASATINIB ANHYDROUS]
- bioavailability [6]: 27%
- clearance [7]: 26.4 mL/min/kg
- Vd [8]: 6.3 L/kg

SMILES: COc1cc(N2CCN(C(C)=O)CC2)ccc1Nc1ncc(Cl)c(-c2c[nH]c3ccccc23)n1
- IC50 (NCI-H1975 [3]): 770 nM
- IC50 [4]: 100 nM

SMILES: Cc1ccc(NC(=O)c2cc(C(F)(F)F)ccn2)cc1/C=C/n1cnc2c(NC3CC3)ncnc21
- IC50 [9]: 14100 nM

SMILES: Cn1c(=O)cc(Nc2ccc(I)cc2F)c2c(=O)n(C3CC3)c(=O)n(-c3ccccc3)c21
- IC50 (HT-29): 1.5 nM
- IC50 (ACHN): 13 nM

SMILES: Cc1ccc(NC(=O)c2cc(C(C)(C)C)on2)cc1C#Cn1cnc2c(NC3CC3)ncnc21
- IC50 [10]: 359 nM

SMILES: COc1cc2nccc(Oc3ccc(NC(=O)NC4CC4)c(Cl)c3)c2cc1C(N)=O [LENVATINIB]
- IC50 [11]: 3.4 nM

SMILES: COc1cc(/C=C/c2n[nH]c3ccccc23)ccc1O
- IC50 [12]: 1900 nM

SMILES: C=CC(=O)Nc1cc(Nc2ncc(Cl)c(-c3cnn4ccccc34)n2)c(OC)cc1C1CC[C@@H](N(C)C)C1 (some centres undefined)
- GI50 (Calu-3): 380 nM
- IC50 (PC-9 [13]): 16 nM
- GI50 (PC-9 [14]): 10 nM
- solubility [15]: 28 µM (≈ 14.9 µg/mL)
- IC50 [16]: 5600 nM
- GI50 (NCI-H1975 [17]): 7 nM
- IC50 [18]: 2 nM

SMILES: CN(C)C/C=C/C(=O)Nc1cc2c(Nc3ccc(F)c(Cl)c3)ncnc2cc1O[C@H]1CCOC1 [AFATINIB]
- inhibition in vivo at 20 mg/kg (NCI-H1975 [19]): 12%

SMILES: C=CC(=O)Nc1cc(Nc2ncc(Cl)c(-c3cnn4ccccc34)n2)c(OC)cc1C(C)CCNC (centres undefined)
- GI50 (Calu-3): 180 nM
- IC50 (PC-9 [13]): 2 nM
- GI50 (PC-9 [14]): 4 nM
- solubility [15]: 222 µM (≈ 112 µg/mL)
- IC50 [16]: 6700 nM
- GI50 (NCI-H1975 [17]): 3 nM
- IC50 [18]: 0.6 nM

SMILES: COc1cc2ncnc(Nc3ccc(F)c(Cl)c3)c2cc1OC
- half-life [5]: 3 h

SMILES: C(=C\c1n[nH]c2cc(Sc3ccccc3)ccc12)/c1ccccc1
- Ki [20]: 4.5 nM

SMILES: Cc1ccc2cc(NC(=O)c3ccccc3Sc3ccc4c(/C=C/c5ccccn5)n[nH]c4c3)ccc2n1
- IC50 at 72 h [21]: 0.8 nM

SMILES: COc1cc(-c2ccc3[nH]nc(/C=C/c4ccc(OC)c(OC)c4)c3c2)ccc1O
- IC50 at 72 h [21]: 18 nM
- AUC(0-inf) [22]: 300 ng·h/mL

SMILES: CC(Oc1cc(-c2cnn(C3CCNCC3)c2)cnc1N)c1c(Cl)ccc(F)c1Cl (centres undefined)
- IC50 (A549): 20 nM
